Test results from patent US9469650B2, “Melampomagnolide B derivatives” (BOARD OF TRUSTEES OF THE UNIVERSITY OF ARKANSAS, priority 2013, dated 2016).
Where two headings read alike, the source gives them in different places.

Experiments:
SF-295 = experiment: panel of 60 human tumor cell lines, growth inhibition (CNS Cancer); settings: Homo sapiens; for GI50: SF-295; for CC50: SF-295, read-out: LC50; for IC (TGI): SF-295, read-out: TGI
SNB-19 = experiment: as above; settings: Homo sapiens; for GI50: SNB-19; for CC50: SNB-19, read-out: LC50; for IC (TGI): SNB-19, read-out: TGI
U251 = experiment: as above; settings: Homo sapiens; for GI50: U-251; for CC50: U-251, read-out: LC50; for IC (TGI): U-251, read-out: TGI
HCC-2998 = experiment: panel of 60 human tumor cell lines, growth inhibition (Colon Cancer); settings: Homo sapiens; for GI50: HCC 2998; for CC50: HCC 2998, read-out: LC50; for IC (TGI): HCC 2998, read-out: TGI
HT29 = experiment: as above; settings: for Percent Growth: HT29; for GI50 / CC50 / IC (TGI): Homo sapiens; for GI50: HT-29; for CC50: HT-29, read-out: LC50; for IC (TGI): HT-29, read-out: TGI
786-0 = experiment: panel of 60 human tumor cell lines, growth inhibition (Renal Cancer); settings: Homo sapiens; for GI50: 786-0; for CC50: 786-0, read-out: LC50; for IC (TGI): 786-0, read-out: TGI
ACHN = experiment: as above; settings: Homo sapiens; for CC50: read-out: LC50; for IC (TGI): read-out: TGI
TK-10 = experiment: as above; settings: Homo sapiens; for GI50: TK-10, TK-10, NCI five dose; for CC50: TK-10, read-out: LC50; for IC (TGI): TK-10, read-out: TGI
HS 578T = experiment: panel of 60 human tumor cell lines, growth inhibition (Breast Cancer); settings: Homo sapiens, Hs-578T; for CC50: read-out: LC50; for IC (TGI): read-out: TGI
BT-549 = experiment: as above; settings: Homo sapiens; for GI50: BT-549; for CC50: BT-549, read-out: LC50; for IC (TGI): BT-549, read-out: TGI
IGROV1 = experiment: panel of 60 human tumor cell lines, growth inhibition (Ovarian Cancer); settings: Homo sapiens; for GI50: IGROV-1; for CC50: IGROV-1, read-out: LC50
SK-OV-3 = experiment: as above; settings: Homo sapiens; for GI50: SK-OV-3; for CC50: SK-OV-3, read-out: LC50; for IC (TGI): SK-OV-3, read-out: TGI
DU-145 = experiment: panel of 60 human tumor cell lines, growth inhibition (Prostate Cancer); settings: Homo sapiens; for GI50: DU-145; for CC50: DU-145, read-out: LC50; for IC (TGI): DU-145, read-out: TGI
HOP-62 = experiment: panel of 60 human tumor cell lines, growth inhibition (Non-Small Cell Lung Cancer); settings: Homo sapiens; for GI50: HOP-62; for CC50: HOP-62, read-out: LC50
NCI-H226 = experiment: as above; settings: Homo sapiens; for GI50: NCI-H226; for CC50: NCI-H226, read-out: LC50; for IC (TGI): NCI-H226, read-out: TGI
NCI-H23 = experiment: as above; settings: Homo sapiens; for GI50: NCI-H23; for CC50: NCI-H23, read-out: LC50; for IC (TGI): NCI-H23, read-out: TGI
NCI-H460 = experiment: as above; settings: Homo sapiens; for GI50: NCI-H460; for CC50: NCI-H460, read-out: LC50; for IC (TGI): NCI-H460, read-out: TGI
NCI-H522 = experiment: as above; settings: Homo sapiens; for GI50: NCI-H522; for CC50: NCI-H522, read-out: LC50; for IC (TGI): NCI-H522, read-out: TGI

## C=C1C(=O)O[C@H]2[C@H]1CC/C(COC(=O)NCCCCCCO)=C\CC[C@@]1(C)O[C@@H]21 [JVM 2-31]
HL-60(TB); Log10 Concentration −4.0
  Percent Growth: −49%
HL-60(TB); Log10 Concentration −5.0
  Percent Growth: 9%
HL-60(TB); Log10 Concentration −6.0
  Percent Growth: 103%
HL-60(TB); Log10 Concentration −7.0
  Percent Growth: 107%
HL-60(TB); Log10 Concentration −8.0
  Percent Growth: 115%
SF-295
  GI50: 14.8 µM
  CC50: 85.8 µM
  IC (TGI): 35.7 µM
SNB-19
  GI50: 16.7 µM
  CC50: > 100 µM
  IC (TGI): 51.3 µM
U251
  GI50: 17.4 µM
  CC50: 63.7 µM
  IC (TGI): 33.3 µM
HCC-2998
  GI50: 15.6 µM
  CC50: 61.9 µM
  IC (TGI): 31.1 µM
HT29; Log10 Concentration −4.0
  Percent Growth: −61%
HT29; Log10 Concentration −5.0
  Percent Growth: 93%
HT29; Log10 Concentration −6.0
  Percent Growth: 102%
HT29; Log10 Concentration −7.0
  Percent Growth: 104%
HT29; Log10 Concentration −8.0
  Percent Growth: 101%
HT29
  GI50: 19 µM
  CC50: 84.8 µM
  IC (TGI): 40.1 µM
786-0
  GI50: 2.99 µM
  CC50: 43.7 µM
  IC (TGI): 13.1 µM
ACHN
  GI50: 3.21 µM
  CC50: 49.6 µM
  IC (TGI): 13.6 µM
TK-10
  GI50: 2.64 µM
  CC50: 33.3 µM
  IC (TGI): 9.68 µM
HS 578T
  GI50: 3.92 µM
  CC50: > 100 µM
  IC (TGI): 85.7 µM
BT-549
  GI50: 2.86 µM
  CC50: 43.4 µM
  IC (TGI): 17.4 µM
IGROV1
  GI50: 17.4 µM
  CC50: 80.7 µM
IGROV1; IGROV-1, read-out: TGI
  IC (TGI): 37.5 µM
SK-OV-3
  GI50: 28.6 µM
  CC50: > 100 µM
  IC (TGI): 69.9 µM
DU-145
  GI50: 3.68 µM
  CC50: 39.4 µM
  IC (TGI): 14.3 µM
HOP-62
  GI50: 19.6 µM
  CC50: 86.7 µM
HOP-62; HOP-62, read-out: TGI
  IC (TGI): 41.2 µM
NCI-H226
  GI50: 4.92 µM
  CC50: 87.2 µM
  IC (TGI): 23.9 µM
NCI-H23
  GI50: 13.5 µM
  CC50: 72 µM
  IC (TGI): 31.1 µM
NCI-H460
  GI50: 20.3 µM
  CC50: > 100 µM
  IC (TGI): 51.2 µM
NCI-H522
  GI50: 1.7 µM
  CC50: 8.15 µM
  IC (TGI): 3.72 µM

## C=C1C(=O)O[C@H]2[C@H]1CC/C(COC(=S)n1ccnc1)=C\CC[C@@]1(C)O[C@@H]21 [JVM 66]
HL-60(TB); Log10 Concentration −4.0
  Percent Growth: −62%
HL-60(TB); Log10 Concentration −5.0
  Percent Growth: 16%
HL-60(TB); Log10 Concentration −6.0
  Percent Growth: 102%
HL-60(TB); Log10 Concentration −7.0
  Percent Growth: 101%
HL-60(TB); Log10 Concentration −8.0
  Percent Growth: 95%
SF-295
  GI50: 45 µM
  CC50: > 100 µM
  IC (TGI): 106 µM
SNB-19
  GI50: 54.3 µM
  CC50: > 100 µM
  IC (TGI): > 100 µM
U251
  GI50: 32.5 µM
  CC50: > 100 µM
  IC (TGI): > 100 µM
HCC-2998
  GI50: 16.8 µM
  CC50: 63.2 µM
  IC (TGI): 12.6 µM
HT29; Log10 Concentration −4.0
  Percent Growth: −70%
HT29; Log10 Concentration −5.0
  Percent Growth: 60%
HT29; Log10 Concentration −6.0
  Percent Growth: 105%
HT29; Log10 Concentration −7.0
  Percent Growth: 100%
HT29; Log10 Concentration −8.0
  Percent Growth: 99%
HT29
  GI50: 12 µM
  CC50: 69.9 µM
  IC (TGI): 29 µM
786-0
  GI50: 16.8 µM
  CC50: 85.7 µM
  IC (TGI): 37.9 µM
ACHN
  GI50: 6.73 µM
  CC50: 50.7 µM
  IC (TGI): 20.4 µM
TK-10
  GI50: 10.5 µM
  CC50: 58.2 µM
  IC (TGI): 24.8 µM
HS 578T
  GI50: 26.5 µM
  CC50: > 100 µM
  IC (TGI): > 100 µM
BT-549
  GI50: 18.3 µM
  CC50: > 100 µM
  IC (TGI): 68 µM
IGROV1
  GI50: 9.04 µM
  CC50: > 100 µM
SK-OV-3
  GI50: 61.4 µM
  CC50: > 100 µM
  IC (TGI): > 100 µM
DU-145
  GI50: 12.2 µM
  CC50: 59.1 µM
  IC (TGI): 26.9 µM
HOP-62
  GI50: 36.5 µM
  CC50: > 100 µM
NCI-H226
  GI50: 99.6 µM
  CC50: > 100 µM
  IC (TGI): > 100 µM
NCI-H23
  GI50: 13.5 µM
  CC50: > 100 µM
  IC (TGI): 59.8 µM
NCI-H460
  GI50: 15.7 µM
  CC50: > 100 µM
  IC (TGI): 71.4 µM
NCI-H522
  GI50: 5.19 µM
  CC50: 66.9 µM
  IC (TGI): 21.3 µM
